In assay [1] the test system is posterior cerebral arteries. Briefly: Myogenic tone of isolated posterior cerebral arteries after in vivo treatment. More on the design: species or system mouse. From the text:
Myocardial infarction: HF was induced by surgical ligation of the left anterior descending coronary artery (3). Briefly, mice were anaesthetized with isoflurane, intubated with a 20-gauge angiocatheter and ventilated with room air. Under sterile conditions, the thorax and pericardium were opened, and the left anterior descending coronary artery was permanently ligated with 7-0 silk suture (Deknatel: Fall River, USA). In sham-operated controls, the thorax and pericardium were opened, but the left anterior descending coronary artery was not ligated. Following the procedure, the chest was closed and the mice were extubated upon spontaneous respiration. Posterior cerebral arteries (PCAs) were isolated 4-6 weeks post-infarction. […]
Myogenic responses were elicited by step-wise 20 mmHg increases in transmural pressure from 20 mmHg to 80 mmHg (olfactory arteries) or 100 mmHg (posterior cerebral arteries and cremaster skeletal muscle resistance arteries). At each pressure step, vessel diameter (diaactive) was measured once a steady state was reached (5 min). Vessels requiring treatment (e.g., CFTR(inh)-172) were incubated with the reagent in MOPS for 30 min and myogenic responses were then assessed in the presence of that reagent. Following completion of all diaactive measurements, MOPS buffer was replaced with a Ca^2+-free version and maximal passive diameter (diamax) was recorded at each pressure step.
Myogenic tone was calculated as the percent constriction in relation to the maximal diameter at each respective transmural pressure: tone (% of diamax)=[(diamax−diaactive)/diamax]×100, where diaactive is the vessel diameter in MOPS containing Ca^2+ and diamax is the diameter in Ca^2+-free MOPS. Analyses of vasomotor responses to phenylephrine used the same calculation, only in this case, diaactive represents the vessel diameter at steady state following application of the given agent and diamax represents the maximal diameter measured under Ca^2+-free conditions.

For assay [2], the target named is T1, CFTR (Mus musculus, UniProt P26361). Briefly: CFTR protein expression in TNF-treated mesenteric artery primary vascular smooth muscle cells. The format is cell-based. Details: mesenteric artery segments were isolated, cut into small pieces and digested with trypsin, collagenase and elastase; endogenous in cells; host or cells: primary mesenteric artery vascular smooth muscle cells. Particulars: 48 h TNF 10 ng/ml + C18 6 μmol/L for last 24 h. On the procedure: Procedures for isolating and culturing mesenteric artery smooth muscle cells were carried out as described in (10). Briefly, mesenteric artery segments were isolated, cut into small pieces and digested with trypsin, collagenase and elastase. The resulting cell suspension was washed several times in phosphate-buffered saline and plated in Dulbecco's Modified Eagle Medium (DMEM) culture media containing 10% fetal bovine serum and 1% penicillin-streptomycin. Cell cultures were maintained at 37° C. with 5% CO2 and split at […] cells seeding density. Baby hamster kidney fibroblast cells stably expressing wild-type human CFTR (10,17) were maintained in DMEM/F12 media containing 5% fetal bovine serum and 250 μmol/L methotrexate (which activates the CFTR transgene promoter). Cells were maintained under standard cell culture conditions at 37° C. with 5% CO2.
T1 sequence (P26361 whole entry): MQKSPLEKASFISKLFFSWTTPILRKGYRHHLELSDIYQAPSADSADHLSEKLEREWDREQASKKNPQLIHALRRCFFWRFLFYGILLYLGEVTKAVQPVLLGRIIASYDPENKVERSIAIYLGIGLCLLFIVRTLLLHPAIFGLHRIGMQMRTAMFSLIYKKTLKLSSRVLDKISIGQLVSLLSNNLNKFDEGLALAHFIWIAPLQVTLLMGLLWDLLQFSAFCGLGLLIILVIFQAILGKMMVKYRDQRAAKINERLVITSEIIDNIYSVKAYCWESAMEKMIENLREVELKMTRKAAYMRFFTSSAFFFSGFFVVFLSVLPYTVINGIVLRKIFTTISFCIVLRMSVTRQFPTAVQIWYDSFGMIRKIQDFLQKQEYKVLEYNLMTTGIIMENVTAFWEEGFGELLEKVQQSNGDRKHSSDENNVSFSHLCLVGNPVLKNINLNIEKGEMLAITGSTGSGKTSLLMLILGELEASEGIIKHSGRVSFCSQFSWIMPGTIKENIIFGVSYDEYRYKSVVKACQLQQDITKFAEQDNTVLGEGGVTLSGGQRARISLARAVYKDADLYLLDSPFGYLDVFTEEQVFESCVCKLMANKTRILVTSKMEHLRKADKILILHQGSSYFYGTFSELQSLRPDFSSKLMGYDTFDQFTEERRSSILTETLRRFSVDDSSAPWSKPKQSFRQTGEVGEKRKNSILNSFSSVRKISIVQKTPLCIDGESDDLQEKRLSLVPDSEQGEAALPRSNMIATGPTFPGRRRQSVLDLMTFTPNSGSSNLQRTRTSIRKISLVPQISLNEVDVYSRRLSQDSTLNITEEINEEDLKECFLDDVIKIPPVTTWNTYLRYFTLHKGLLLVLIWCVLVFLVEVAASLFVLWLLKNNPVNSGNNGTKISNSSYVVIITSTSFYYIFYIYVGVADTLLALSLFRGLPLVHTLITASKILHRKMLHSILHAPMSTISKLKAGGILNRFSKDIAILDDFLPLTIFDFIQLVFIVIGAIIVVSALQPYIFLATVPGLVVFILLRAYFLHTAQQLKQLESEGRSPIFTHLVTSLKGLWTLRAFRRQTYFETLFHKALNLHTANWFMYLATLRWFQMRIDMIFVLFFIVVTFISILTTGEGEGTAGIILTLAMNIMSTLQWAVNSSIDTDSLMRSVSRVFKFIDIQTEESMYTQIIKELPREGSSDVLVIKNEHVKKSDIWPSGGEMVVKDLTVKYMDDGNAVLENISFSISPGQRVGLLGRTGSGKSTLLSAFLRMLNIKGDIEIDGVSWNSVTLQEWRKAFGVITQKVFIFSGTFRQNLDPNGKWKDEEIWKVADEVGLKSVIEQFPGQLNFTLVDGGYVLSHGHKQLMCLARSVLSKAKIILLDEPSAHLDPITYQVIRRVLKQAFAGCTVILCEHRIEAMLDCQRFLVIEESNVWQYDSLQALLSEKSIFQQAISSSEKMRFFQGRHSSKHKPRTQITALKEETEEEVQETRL
Western blots for CFTR were completed as previously described (12, 18). […]
The primary antibodies were conjugated with either peroxidase-labeled donkey anti-rabbit IgG (GE Healthcare Amersham (Piscataway, USA) cat# NA934) or peroxidase-labeled goat anti-mouse IgG (GE Healthcare Amersham cat# NA931) secondary antibodies. […] Developed films were evaluated densitometrically using “Image J” software (freely available from the NIH); digital images were evaluated with Image Lab software (Bio-Rad).

The target in assay [3] is T1, CFTR. Briefly: CFTR protein in cerebral arteries of mice with heart failure. The format is in vivo. More on the design: Cerebral artery lysates were prepared by grinding artery samples in lysis buffer; from tissue; host or cells: cerebral arteries of male wild-type C57BL/6N mice (naïve, heart failure or subarachnoid hemorrhage models). Particulars: 6 weeks post-ligation, 3 mg/kg daily for 2 days. On the procedure:
Western blots for CFTR were completed as previously described (12, 18). Cerebral artery lysates were prepared by grinding artery samples in lysis buffer containing 50 mM Tris (pH 7.3), 150 mM NaCl, 2 mM […], 0.1% Triton-X-100, 0.1% […] and protease inhibitors; the same lysis buffer was used to prepare cell culture lysates. Following lysis, the samples were centrifuged (10 minutes at 13,500 g; at 4° C.) to remove insoluble material. Immediately prior to polyacrylamide electrophoresis, additional SDS (to 2% final concentration), glycerol (to 2% final concentration), β-mercaptoethanol (to 2% final concentration) and dithiothreitol (2 mM final concentration) were added. Proteins were separated electrophoretically on 7% acrylamide gels and transferred onto polyvinylidene difluoride (PVDF) membranes. […]
The primary antibodies were conjugated with either peroxidase-labeled donkey anti-rabbit IgG (GE Healthcare Amersham (Piscataway, USA) cat# NA934) or peroxidase-labeled goat anti-mouse IgG (GE Healthcare Amersham cat# NA931) secondary antibodies. […] Developed films were evaluated densitometrically using “Image J” software (freely available from the NIH); digital images were evaluated with Image Lab software (Bio-Rad). […]

The values that follow come from US20210346359A1, “Use of CFTR Modulators For Treating Cerebrovascular Conditions” (Qanatpharma AG, priority 2018, published 2021).

Each structure is given as a SMILES string. Entries after “also recorded” stand apart in the source; their conditions may differ.

On to `O=C(Nc1ncc(C(c2ccccc2Cl)N2CCC(O)C2)s1)C1(c2ccc3c(c2)OCO3)CC1` (centres unmarked) [C18, 1-(benzo[d][1,3]dioxol-5-yl)-N-(5-((2-chlorophenyl)(3-hydroxypyrrolidin-1-yl)methyl)thiazol-2-yl)cyclopropanecarboxamide], for which the “posterior cerebral artery myogenic tone” value is recorded as “not susceptible; also recorded: not observed” in assay [1] (arteries from CFTR knockout mice, in vivo 3 mg/kg daily for 2 days); “normalizes; also recorded: reduces” in assay [1] (arteries from HF mice, in vivo 3 mg/kg daily for 2 days); “does not affect; also recorded: does not alter” in assay [1] (arteries from sham-operated mice, in vivo 3 mg/kg i.p. daily for 2 days). Also, the “CFTR protein expression after TNF down-regulation” value on CFTR [2] was “reverses the decline; also recorded: fully restores”. Besides, the “cerebral artery CFTR protein expression in HF” value on CFTR [3] is recorded as “restores; also recorded: eliminates this reduction”.
